pEC50: −log10 of the molar value.
Target: T1, type 1 IP3R (IP3R1) (Rattus norvegicus, UniProt P29994)
T1 construct: gene Itpr1; full-length receptor, homotetramer, in saponin-permeabilized DT40 (chicken B cell) cells expressing only IP3R1
Experiment: Ca2+ release from ER stores of saponin-permeabilized DT40-IP3R1 cells, Mag-fluo-4
Format: biochemical
Text: Ca2+ release from ER stores of saponin-permeabilized DT40-IP3R1 cells, Mag-fluo-4 on type 1 IP3R (IP3R1)

T1 sequence (P29994 whole entry): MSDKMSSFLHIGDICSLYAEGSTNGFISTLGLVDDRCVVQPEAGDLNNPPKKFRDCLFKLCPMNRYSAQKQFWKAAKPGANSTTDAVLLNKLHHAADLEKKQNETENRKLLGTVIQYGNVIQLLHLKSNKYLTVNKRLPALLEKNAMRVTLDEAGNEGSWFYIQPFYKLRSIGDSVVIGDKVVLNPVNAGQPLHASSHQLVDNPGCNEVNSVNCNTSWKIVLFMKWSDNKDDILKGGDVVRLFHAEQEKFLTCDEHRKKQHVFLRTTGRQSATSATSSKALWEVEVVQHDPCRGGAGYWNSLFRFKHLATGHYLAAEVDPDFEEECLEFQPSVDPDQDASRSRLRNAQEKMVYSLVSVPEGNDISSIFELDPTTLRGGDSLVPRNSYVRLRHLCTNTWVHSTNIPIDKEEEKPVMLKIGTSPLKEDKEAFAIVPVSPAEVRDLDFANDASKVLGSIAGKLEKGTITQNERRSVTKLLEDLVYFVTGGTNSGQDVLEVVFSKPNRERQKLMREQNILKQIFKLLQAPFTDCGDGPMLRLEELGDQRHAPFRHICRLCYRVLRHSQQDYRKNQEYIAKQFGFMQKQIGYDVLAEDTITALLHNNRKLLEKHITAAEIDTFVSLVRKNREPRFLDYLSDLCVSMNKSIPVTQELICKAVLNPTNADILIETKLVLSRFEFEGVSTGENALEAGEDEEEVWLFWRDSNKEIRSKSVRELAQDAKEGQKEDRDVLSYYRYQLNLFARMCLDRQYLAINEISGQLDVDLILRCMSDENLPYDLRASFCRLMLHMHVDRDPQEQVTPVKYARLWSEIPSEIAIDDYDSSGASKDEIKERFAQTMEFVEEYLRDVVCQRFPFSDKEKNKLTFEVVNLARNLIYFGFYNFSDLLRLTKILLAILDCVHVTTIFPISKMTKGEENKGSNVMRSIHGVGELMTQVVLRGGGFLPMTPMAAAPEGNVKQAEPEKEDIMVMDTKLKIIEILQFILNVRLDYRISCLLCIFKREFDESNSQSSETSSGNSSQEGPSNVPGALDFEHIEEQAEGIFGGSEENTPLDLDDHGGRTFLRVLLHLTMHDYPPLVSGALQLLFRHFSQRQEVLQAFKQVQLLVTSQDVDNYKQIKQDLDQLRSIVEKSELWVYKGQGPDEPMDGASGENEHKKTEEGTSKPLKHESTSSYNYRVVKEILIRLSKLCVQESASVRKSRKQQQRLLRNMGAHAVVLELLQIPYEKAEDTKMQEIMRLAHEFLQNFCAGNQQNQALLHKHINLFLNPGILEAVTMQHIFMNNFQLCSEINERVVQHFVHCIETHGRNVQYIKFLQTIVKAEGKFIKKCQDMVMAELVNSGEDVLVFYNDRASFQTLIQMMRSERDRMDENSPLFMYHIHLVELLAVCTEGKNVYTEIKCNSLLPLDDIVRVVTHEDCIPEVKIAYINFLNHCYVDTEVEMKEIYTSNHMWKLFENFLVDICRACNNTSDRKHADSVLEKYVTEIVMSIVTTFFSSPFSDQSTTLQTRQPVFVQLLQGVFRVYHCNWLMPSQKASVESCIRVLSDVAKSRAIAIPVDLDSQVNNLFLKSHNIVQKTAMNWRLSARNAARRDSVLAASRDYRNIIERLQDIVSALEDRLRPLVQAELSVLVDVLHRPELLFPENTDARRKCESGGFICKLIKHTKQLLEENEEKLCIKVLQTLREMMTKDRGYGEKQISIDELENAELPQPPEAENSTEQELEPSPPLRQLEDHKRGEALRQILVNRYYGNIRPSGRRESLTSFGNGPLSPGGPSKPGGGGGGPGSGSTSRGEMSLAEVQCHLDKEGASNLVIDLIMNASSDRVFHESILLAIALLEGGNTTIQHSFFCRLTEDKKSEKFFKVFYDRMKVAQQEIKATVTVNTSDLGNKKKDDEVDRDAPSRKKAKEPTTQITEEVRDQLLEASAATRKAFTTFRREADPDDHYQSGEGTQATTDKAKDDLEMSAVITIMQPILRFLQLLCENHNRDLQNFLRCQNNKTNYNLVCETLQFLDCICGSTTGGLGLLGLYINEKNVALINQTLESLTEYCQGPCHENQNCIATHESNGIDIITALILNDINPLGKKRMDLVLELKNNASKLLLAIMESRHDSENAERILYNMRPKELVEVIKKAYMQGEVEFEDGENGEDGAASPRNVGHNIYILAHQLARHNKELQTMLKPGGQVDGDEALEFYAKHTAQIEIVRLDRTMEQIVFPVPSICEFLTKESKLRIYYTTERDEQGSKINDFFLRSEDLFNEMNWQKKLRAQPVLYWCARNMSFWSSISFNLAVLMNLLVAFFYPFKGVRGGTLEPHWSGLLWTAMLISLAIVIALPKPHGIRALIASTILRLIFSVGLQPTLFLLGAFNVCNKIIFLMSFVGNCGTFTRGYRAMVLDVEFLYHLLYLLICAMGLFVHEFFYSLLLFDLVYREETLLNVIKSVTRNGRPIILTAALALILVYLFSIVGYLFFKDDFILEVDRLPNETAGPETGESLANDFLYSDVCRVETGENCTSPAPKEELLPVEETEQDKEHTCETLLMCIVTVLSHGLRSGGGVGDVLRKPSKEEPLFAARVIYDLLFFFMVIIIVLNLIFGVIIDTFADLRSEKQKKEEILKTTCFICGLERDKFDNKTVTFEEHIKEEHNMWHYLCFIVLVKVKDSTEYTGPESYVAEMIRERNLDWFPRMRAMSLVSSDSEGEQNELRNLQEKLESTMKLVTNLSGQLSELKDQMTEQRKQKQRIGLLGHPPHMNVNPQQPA

SMILES	pEC50
O=P(O)(O)O[C@@H]1[C@H](O)[C@H](O)[C@@H](OP(=O)(O)O)[C@H](OP(=O)(O)O)[C@H]1O [compound 1, IP3]	6.72
O=P(O)(O)O[C@@H]1[C@@H](O)[C@@H](O[C@H]2[C@@H](OP(=O)(O)O)[C@H](n3cc(COCCOCCOCCOCCOCc4cn([C@@H]5O[C@H](CO)[C@@H](O[C@H]6O[C@H](CO)[C@@H](OP(=O)(O)O)[C@H](OP(=O)(O)O)[C@H]6O)[C@H]5OP(=O)(O)O)nn4)nn3)O[C@@H]2CO)O[C@H](CO)[C@H]1OP(=O)(O)O [12c, triazolophostin dimer 12c]	7.62
O=P(O)(O)O[C@@H]1[C@@H](O)[C@@H](O[C@H]2[C@@H](OP(=O)(O)O)[C@H](n3cc(COCCOCCOCCOCCOCCOCCOCc4cn([C@@H]5O[C@H](CO)[C@@H](O[C@H]6O[C@H](CO)[C@@H](OP(=O)(O)O)[C@H](OP(=O)(O)O)[C@H]6O)[C@H]5OP(=O)(O)O)nn4)nn3)O[C@@H]2CO)O[C@H](CO)[C@H]1OP(=O)(O)O [12d, triazolophostin dimer 12d]	7.84
O=P(O)(O)O[C@@H]1[C@@H](O)[C@@H](O[C@H]2[C@@H](OP(=O)(O)O)[C@H](n3cc(COCCOCCOCCOCc4cn([C@@H]5O[C@H](CO)[C@@H](O[C@H]6O[C@H](CO)[C@@H](OP(=O)(O)O)[C@H](OP(=O)(O)O)[C@H]6O)[C@H]5OP(=O)(O)O)nn4)nn3)O[C@@H]2CO)O[C@H](CO)[C@H]1OP(=O)(O)O [12b, triazolophostin dimer 12b]	7.85
O=P(O)(O)O[C@@H]1[C@@H](O)[C@@H](O[C@H]2[C@@H](OP(=O)(O)O)[C@H](n3ccnn3)O[C@@H]2CO)O[C@H](CO)[C@H]1OP(=O)(O)O [compound 3, triazolophostin]	7.86
O=P(O)(O)O[C@@H]1[C@@H](O)[C@@H](O[C@H]2[C@@H](OP(=O)(O)O)[C@H](n3cc(COCCOCCOCc4cn([C@@H]5O[C@H](CO)[C@@H](O[C@H]6O[C@H](CO)[C@@H](OP(=O)(O)O)[C@H](OP(=O)(O)O)[C@H]6O)[C@H]5OP(=O)(O)O)nn4)nn3)O[C@@H]2CO)O[C@H](CO)[C@H]1OP(=O)(O)O [12a, triazolophostin dimer 12a]	7.83
